Measurements taken from ChEMBL document CHEMBL1129665, “2-Sulfonyl-4-chloroanilino moiety: a potent pharmacophore for the anti-human immunodeficiency virus type 1 activity of pyrrolyl aryl sulfones” (J Med Chem, 1996).

Key:
MT4 [1] = experiment: Concentration required to reduce the viability of mock-infected MT-4 cells by 50%; format: functional; conditions: Homo sapiens
MT4 [2] = experiment: Selectivity index expressed as the ratio of CC50/ EC50; format: functional, Homo sapiens
MT4 [3] = experiment: Effective concentration against HIV-1 induced cytopathogenicity in MT-4 cells; format: functional, cell-based; conditions: Homo sapiens
[4] = target: Human immunodeficiency virus type 1 reverse transcriptase (Human immunodeficiency virus 1, UniProt Q72547); experiment: Inhibitory activity against HIV rRT activity in wild type IIIB strain
[5] = target: Human immunodeficiency virus type 1 reverse transcriptase (Human immunodeficiency virus 1, UniProt Q72547, Y181C); experiment: Inhibitory activity against HIV rRT activity in mutant HIV-1 strain resistant to Nevirapine (Y181C)
[6] = target: Human immunodeficiency virus type 1 reverse transcriptase (Human immunodeficiency virus 1, UniProt Q72547, L100I); experiment: Inhibitory activity against HIV rRT activity in HIV-1 mutant resistant to TIBO(L100I) strain
[7] = target: Human immunodeficiency virus type 2 pol protein (Human immunodeficiency virus 2, UniProt P88142); experiment: Inhibitory activity against HIV rRT activity in HIV-2
Chain of Human immunodeficiency virus type 2 pol protein (P88142 whole entry): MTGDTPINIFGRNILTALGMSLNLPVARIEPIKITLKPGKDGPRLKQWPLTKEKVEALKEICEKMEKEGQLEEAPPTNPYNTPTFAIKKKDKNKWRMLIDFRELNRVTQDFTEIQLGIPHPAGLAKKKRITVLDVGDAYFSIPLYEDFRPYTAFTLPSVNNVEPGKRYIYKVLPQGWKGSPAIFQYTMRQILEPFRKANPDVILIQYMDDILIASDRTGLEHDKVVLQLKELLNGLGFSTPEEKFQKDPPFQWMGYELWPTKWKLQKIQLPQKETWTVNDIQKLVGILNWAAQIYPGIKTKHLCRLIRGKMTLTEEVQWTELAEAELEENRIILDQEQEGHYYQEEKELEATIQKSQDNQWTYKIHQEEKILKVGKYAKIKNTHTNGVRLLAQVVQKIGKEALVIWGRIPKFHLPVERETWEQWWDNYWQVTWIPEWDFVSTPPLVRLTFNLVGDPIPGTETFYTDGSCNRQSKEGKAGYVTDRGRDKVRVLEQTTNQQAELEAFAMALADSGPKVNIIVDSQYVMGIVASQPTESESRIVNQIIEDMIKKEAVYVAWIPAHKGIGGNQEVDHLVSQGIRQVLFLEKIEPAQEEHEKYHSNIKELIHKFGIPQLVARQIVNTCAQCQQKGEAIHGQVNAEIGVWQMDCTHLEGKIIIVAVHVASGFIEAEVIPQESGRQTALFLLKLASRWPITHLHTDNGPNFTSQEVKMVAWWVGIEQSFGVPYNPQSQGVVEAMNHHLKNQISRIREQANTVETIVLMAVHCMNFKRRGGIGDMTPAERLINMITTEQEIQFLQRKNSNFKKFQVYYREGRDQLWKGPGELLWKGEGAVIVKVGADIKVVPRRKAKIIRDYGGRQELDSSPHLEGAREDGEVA

SMILES	CC50 (MT4 [1]) [µM]	Ratio (MT4 [2])	EC50 (MT4 [3]) [µM]	IC50 [4] [µM]	IC50 [5] [µM]	IC50 [6] [µM]	IC50 [7] [µM]
COC(=O)c1cccn1S(=O)(=O)c1cc(N)ccc1Cl	150	2	75				
Nc1ccc(Cl)cc1S(=O)(=O)n1cccc1	165	2	95				
COC(=O)c1cccn1S(=O)(=O)c1ccccc1N	> 300	>14	22				
CCOC(=O)c1cccn1S(=O)(=O)c1ccccc1N	> 300	>30	10				
C=CCOC(=O)c1cccn1S(=O)(=O)c1cc(Cl)ccc1[N+](=O)[O-]	4.3		> 4.3				
O=C(NC1CCCCC1)c1cccn1S(=O)(=O)c1ccccc1F	300		> 300				
CCOC(=O)c1cccn1S(=O)(=O)c1cc(N)ccc1Cl	72		> 72				
CC(=O)c1cccn1S(=O)(=O)c1ccccc1[N+](=O)[O-]	100	50	2				
O=C(NCc1ccccc1)c1cccn1S(=O)(=O)c1ccccc1F	> 300	7	40				
COC(=O)c1cccn1S(=O)(=O)c1ccc(Cl)cc1[N+](=O)[O-]	> 300		> 300				
O=[N+]([O-])c1ccccc1S(=O)(=O)n1cccc1	36		> 36				
Nc1ccc(Cl)cc1S(=O)(=O)n1ccc2ccccc21	1		1				
Nc1ccccc1S(=O)(=O)n1ccc2ccccc21	58	5	11				
CCOC(=O)c1cccn1S(=O)(=O)c1ccccc1Cl	141	5	27				
CCNc1ccc(Cl)cc1S(=O)(=O)n1cccc1C(=O)OCC	300		> 300				
Nc1ccc(Cl)cc1S(=O)(=O)n1cccc1C(=O)OCc1ccccc1	> 300	>2	150				
O=C(OCc1ccccc1)c1cccn1S(=O)(=O)c1cc(Cl)ccc1[N+](=O)[O-]	300		> 300				
O=CNNC(=O)c1cccn1S(=O)(=O)c1ccccc1F	300		> 300				
CCOC(=O)c1cccn1S(=O)(=O)c1cc(C)ccc1[N+](=O)[O-]	> 300	>30.6	9.8	5	> 20	> 20	> 20
O=[N+]([O-])c1ccc(Cl)c(S(=O)(=O)n2ccc3ccccc32)c1	3		> 3				

SMILES	CC50 (MT4 [1]) [µM]	Ratio (MT4 [2])	EC50 (MT4 [3]) [µM]	IC50 [4] [µM]	IC50 [5] [µM]	IC50 [6] [µM]	IC50 [7] [µM]
O=[N+]([O-])c1ccc(Cl)c(S(=O)(=O)n2cccc2)c1	2		> 2				
CCOC(=O)c1cccn1S(=O)(=O)c1cc(C)ccc1N	> 300	>176	1.7	4	> 20	> 20	> 20
CCOC(=O)c1cccn1S(=O)(=O)c1cc([N+](=O)[O-])ccc1Cl	6		> 6				
Nc1cc(Cl)ccc1S(=O)(=O)n1cccc1	75		> 75				
O=[N+]([O-])c1ccc(Cl)cc1S(=O)(=O)n1cccc1	2		> 2				
COC(=O)c1cccn1S(=O)(=O)c1cc(Cl)ccc1[N+](=O)[O-]	12	1.2	10				
CCOC(=O)c1cccn1S(=O)(=O)c1cc(Cl)ccc1NC	300		> 300				
CCOC(=O)c1cccn1S(=O)(=O)c1cc(Cl)c(Cl)cc1[N+](=O)[O-]	5		> 5				
Nc1ccc(Cl)c(S(=O)(=O)n2ccc3ccccc32)c1	> 300	>2	150				
O=C(O)c1cccn1S(=O)(=O)c1ccccc1F	> 300		> 300				
COC(=O)c1cccn1S(=O)(=O)c1ccc(Cl)cc1N	248		> 248				
CCOC(=O)c1cccn1S(=O)(=O)c1cc(Cl)ccc1N	> 300	>2140	0.14	0.4	7.5	8.5	> 20
O=[N+]([O-])c1ccccc1S(=O)(=O)n1ccc2ccccc21	24	5	5				
CNc1ccccc1S(=O)(=O)n1cccc1	> 300		> 300				
COC(=O)c1cccn1S(=O)(=O)c1cc([N+](=O)[O-])ccc1Cl	12		> 12				
O=C(NC1CC1)c1cccn1S(=O)(=O)c1ccccc1F	300		> 300				
CCOC(=O)c1cccn1S(=O)(=O)c1cc(Cl)c(Cl)cc1N	> 300	>25	12				
Nc1ccc(Cl)c(S(=O)(=O)n2cccc2)c1	91		> 91				
Nc1cc(Cl)ccc1S(=O)(=O)n1ccc2ccccc21	37		> 37				
O=C(O)c1cccn1S(=O)(=O)c1ccccc1Cl	> 300		247				

SMILES	CC50 (MT4 [1]) [µM]	Ratio (MT4 [2])	EC50 (MT4 [3]) [µM]	IC50 [4] [µM]	IC50 [5] [µM]	IC50 [6] [µM]	IC50 [7] [µM]
CCCCNc1ccc(Cl)cc1S(=O)(=O)n1cccc1C(=O)OCC	> 300		> 300				
COC(=O)c1cccn1S(=O)(=O)c1ccccc1[N+](=O)[O-]	> 300	>60	5				
CCOC(=O)c1cccn1S(=O)(=O)c1ccccc1F	132	10	13				
O=[N+]([O-])c1cc(Cl)ccc1S(=O)(=O)n1cccc1	15		> 15				
CCOC(=O)c1cccn1S(=O)(=O)c1ccc(Cl)cc1N	238		> 238				
CCCOC(=O)c1cccn1S(=O)(=O)c1cc(Cl)ccc1[N+](=O)[O-]	10		> 10				
O=[N+]([O-])c1ccc(Cl)cc1S(=O)(=O)n1ccc2ccccc21	2		> 2				
CCOC(=O)c1cccn1S(=O)(=O)c1ccccc1[N+](=O)[O-]	> 300	>20	15				
CC(C)OC(=O)c1cccn1S(=O)(=O)c1cc(Cl)ccc1[N+](=O)[O-]	> 300	>10	30				
CCN(CC)CCOC(=O)c1cccn1S(=O)(=O)c1cc(Cl)ccc1[N+](=O)[O-]	30		> 30				
O=[N+]([O-])c1cc(Cl)ccc1S(=O)(=O)n1ccc2ccccc21	8		> 8				
CCOC(=O)c1cccn1S(=O)(=O)c1ccc(Cl)cc1[N+](=O)[O-]	> 300	>20	15				
CCOC(=O)c1cccn1S(=O)(=O)c1cc(Cl)ccc1[N+](=O)[O-]	12		> 12				
Nc1ccccc1S(=O)(=O)n1cccc1	228		> 228				
CCN(CC)CCOC(=O)c1cccn1S(=O)(=O)c1cc(Cl)ccc1N	162	13.5	12				
CC(C)=CCN1Cc2cccc3nc(S)n(c23)C[C@H]1C				0.9	9	> 20	> 20
CCOC(=O)c1cc2ccccc2n1S(=O)(=O)c1cc(Cl)ccc1N	50	28	1.8				
CCOC(=O)c1cc2ccccc2n1S(=O)(=O)c1cc(Cl)ccc1[N+](=O)[O-]	> 100		> 100				
Cc1ccnc2c1NC(=O)c1cccnc1N2C1CC1 [NEVIRAPINE]	< 300						> 20
Cc1cn([C@H]2C[C@H](N=[N+]=[N-])[C@@H](CO)O2)c(=O)[nH]c1=O [ZIDOVUDINE]	> 20	>2000					
